Measured values from patent US9090899B2, “Methods of diagnosing and treating prostate cancer characterized by NDRG1-ERG fusion” (CORNELL UNIVERSITY, priority 2009, dated 2015).

Key:
Assay type in all cases: cell-based
[1] = test system: SLC45A3 mRNA; assay: Hormone treatment of LNCaP cells, SLC45A3 mRNA by TAQMAN quantitative RT-PCR; details: for Induction of SLC45A3 mRNA: LNCaP cells, 3 hours, 10 nM 17β-estradiol or 10 nM DPN; for SLC45A3 mRNA expression: serum-starved LNCaP cells, 1 nM R1881 or 10 nM E2, 3, 12 and 24 h, fold change against vehicle (Ethanol), normalized against TCFL1
Procedure: (§1) FIG. 6. Hormone treatment of LNCaP cells induced SLC45A3 and NDRG1 mRNA expression. SLC45A3 (A and C) or NDRG1 (B and D) mRNA expression was induced upon stimulation with synthetic androgen (R1881) and 17β-estradiol (E2). Serum-starved LNCaP cells were stimulated with 1 nM R1881, 1 nM R1881 in combination with 10 μM Flutamide (A and B), 10 nM E2 or 10 nM diarylpropionitrile (DPN) (C and D) for 3, 12 and 24 h. Samples were run in triplicate and normalized against TCFL1. Columns indicate the mean fold change of induction of three biological replicates against vehicle (Ethanol) only treated cells for the respective time points±SEM.
(§2) Hormone Treatment of LNCaP—The prostate cancer cell line LNCaP was obtained from ATCC (Manassas, Va.; cat.#CRL-1740) and maintained according to the suppliers instructions. For hormonal treatment, cells were plated (500,000 cells/10 cm^2) in the presence of complete growth medium supplemented with 1% Penicillin/Streptomycin. Cells were starved for 48 h in charcoal-stripped (CS) medium (RPMI-1640 1×, 5% charcoal-stripped […], 1% Penicillin/Streptomycin) and then treated with R1881 (1 nM), 17β-estradiol (10 nM), diarylpropionitrile (DPN, 10 nM) or ethanol vehicle for 3, 12, and 24 hours. RNA was extracted using the TRIzol Reagent (Invitrogen, Carlsbad, Calif.), subjected to DNase treatment (DNA-free™ Kit, Applied Biosystems) according to the manufacturer's instructions. To test for the specificity of androgen-stimulation, cells were treated with10 μM Flutamide for 2 hours and then treated with R1881 as described above. TAQMAN expression assays (Applied Biosystems) were used to quantify relative levels of SL45A3, NDRG1, PSA (KLK3) and IGF1R.

[2] = test system: IGF2R mRNA; assay: Hormone treatment of LNCaP cells, IGF2R mRNA by TAQMAN quantitative RT-PCR; details: serum-starved LNCaP cells; 1 nM R1881 or 10 nM E2; 3, 12 and 24 h; fold change against vehicle (Ethanol), normalized against TCFL1
Procedure: (§3) FIG. 7. Androgen and 17β-estradiol (E2) signaling of known target genes in LNCaP cells. IGF2R (A) and PSA (B) mRNA expression was induced upon stimulation with synthetic androgen (R1881) and E2. Serum-starved LNCaP cells were stimulated with 1 nM R1881, 1 nM R1881 in combination with 10 μM Flutamide, 10 nM E2 or 10 nM diarylpropionitrile (DPN) for 3, 12 and 24 h. Total RNA was extracted and used for quantitative RT-PCR using TAQMAN assay. Samples were run in triplicate and normalized against TCFL1. Columns indicate the mean fold change of induction of three biological replicates against vehicle (Ethanol) only treated cells for the respective time points±SEM.
as §2, with “RNA was extracted using the TRIzol Reagent (Invitrogen, Carlsbad, Calif.), subjected to DNase treatment (DNA-free™ Kit, Applied Biosystems) according to the manufacturer's instructions. To test for the specificity of androgen-stimulation, cells were treated with10 μM Flutamide for 2 hours and then treated with R1881 as described above.” left out

[3] = test system: PSA (KLK3) mRNA; assay: Hormone treatment of LNCaP cells, PSA mRNA by TAQMAN quantitative RT-PCR; details: serum-starved LNCaP cells; 1 nM R1881 or 10 nM E2; 3, 12 and 24 h; fold change against vehicle (Ethanol), normalized against TCFL1
Procedure: as §3
as §2, with “RNA was extracted using the TRIzol Reagent (Invitrogen, Carlsbad, Calif.), subjected to DNase treatment (DNA-free™ Kit, Applied Biosystems) according to the manufacturer's instructions. To test for the specificity of androgen-stimulation, cells were treated with10 μM Flutamide for 2 hours and then treated with R1881 as described above.” left out

[4] = test system: NDRG1 mRNA; assay: Hormone treatment of LNCaP cells, NDRG1 mRNA by TAQMAN quantitative RT-PCR; details: for Induction of NDRG1 mRNA: LNCaP cells, 12 hours, 10 nM 17β-estradiol or 10 nM DPN; for NDRG1 mRNA expression: serum-starved LNCaP cells, 1 nM R1881 or 10 nM E2, 3, 12 and 24 h, fold change against vehicle (Ethanol), normalized against TCFL1
Procedure: as §1, §2

C[C@]12CC[C@@H]3c4ccc(O)cc4CC[C@H]3[C@@H]1CC[C@@H]2O [17β-estradiol]
Induction of SLC45A3 mRNA [1]: observed | SLC45A3 mRNA expression [1]: induced | IGF2R mRNA expression [2]: induced | PSA mRNA expression [3]: induced | Induction of NDRG1 mRNA [4]: observed | NDRG1 mRNA expression [4]: induced

N#CC(Cc1ccc(O)cc1)c1ccc(O)cc1 (stereo not drawn) [DPN, diarylpropionitrile]
Induction of SLC45A3 mRNA [1]: not | Induction of NDRG1 mRNA [4]: not

C[C@]1(O)CC[C@H]2[C@@H]3CCC4=CC(=O)CCC4=C3C=C[C@@]21C [R1881]
SLC45A3 mRNA expression [1]: induced | IGF2R mRNA expression [2]: induced | PSA mRNA expression [3]: induced | NDRG1 mRNA expression [4]: induced
